According to ChEMBL document CHEMBL1201862, “PubChem BioAssay data set” (2004):
Activity calls are given as the source filed them.

Key:
[1] = target: Mitogen-activated protein kinase 10 (Homo sapiens, UniProt P53779); assay: Dose response biochemical screening assay for inhibitors of c-Jun N-Terminal Kinase 3 (JNK3). [Related pubchem assays: 746 ]
[2] = target: T1, Protein Tat (Human immunodeficiency virus type 1 group M subtype B (isolate HXB2)(HIV-1), UniProt P04608); assay type: functional;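 also: tat binding to TAR RNA read out by fluorescence polarization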
T1 sequence (P04608 whole entry): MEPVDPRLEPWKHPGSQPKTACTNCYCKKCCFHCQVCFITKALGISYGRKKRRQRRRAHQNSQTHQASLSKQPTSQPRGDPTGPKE

[3] = target: T2, RNA-editing ligase 1, mitochondrial (Trypanosoma brucei brucei, UniProt P86926); assay: inhibition of trypanosome RNA editing ligase – biochemical, fluorescence, Trypanosoma brucei, dose response (AID 1117295); assay type: functional
T2 sequence (P86926 whole entry): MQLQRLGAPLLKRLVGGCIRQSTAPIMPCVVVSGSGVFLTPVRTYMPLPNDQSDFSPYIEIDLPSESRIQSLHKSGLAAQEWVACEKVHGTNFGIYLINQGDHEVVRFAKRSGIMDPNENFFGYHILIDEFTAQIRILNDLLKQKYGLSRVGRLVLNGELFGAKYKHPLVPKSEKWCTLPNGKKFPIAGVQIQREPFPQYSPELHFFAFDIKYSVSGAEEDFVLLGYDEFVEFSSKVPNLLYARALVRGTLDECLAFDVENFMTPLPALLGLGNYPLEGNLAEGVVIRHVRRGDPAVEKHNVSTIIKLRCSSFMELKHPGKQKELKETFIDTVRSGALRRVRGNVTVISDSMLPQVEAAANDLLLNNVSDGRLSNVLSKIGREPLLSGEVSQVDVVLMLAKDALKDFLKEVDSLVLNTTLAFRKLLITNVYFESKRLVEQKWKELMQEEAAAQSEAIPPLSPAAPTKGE

[4] = target: T3, Bcl-2-related protein A1 (Mus musculus, UniProt Q07440); assay: small-molecule antagonists of Bfl-1/BH3 interaction – biochemical, TR-FRET, mouse Bfl-1, confirmation (AID 621);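 also: TR-FRET binding of GST-Bfl-1 to FITC-labelled Bid peptide via terbium antibody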
T3 sequence (Q07440 whole entry): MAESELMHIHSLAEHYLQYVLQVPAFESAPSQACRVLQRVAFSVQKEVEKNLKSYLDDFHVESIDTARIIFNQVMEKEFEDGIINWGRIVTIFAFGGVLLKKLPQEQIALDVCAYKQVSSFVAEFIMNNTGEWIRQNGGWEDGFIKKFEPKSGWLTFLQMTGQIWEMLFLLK

[5] = target: Glyceraldehyde-3-phosphate dehydrogenase (Homo sapiens, UniProt P04406)
[6] = target: T3, Bcl-2-related protein A1; assay: Bfl-1 binding inhibitors, SAR follow-up, biochemical, fluorescence polarization (AID 1070)
[7] = system: Vero; assay: mammalian cell viability reduction – secondary assay, cytotoxicity control for West Nile virus antiviral project, dose response (AID 1650); assay type: functional; conditions: Chlorocebus sabaeus
[8] = Luminescence Cell-Based Dose Retest to Confirm Inhibitors of Cancer Stem Cells. [Related pubchem assays (depositor defined):AID2717, AID2721]; assay type: functional; conditions: Homo sapiens
[9] = target: T4, Mannose-6-phosphate isomerase (Homo sapiens, UniProt P34949); assay: MPI inhibition at elevated mannose 6-phosphate – biochemical, fluorescence intensity, high mannose 6-phosphate, primary screen (AID 1220)
T4 sequence (P34949 whole entry): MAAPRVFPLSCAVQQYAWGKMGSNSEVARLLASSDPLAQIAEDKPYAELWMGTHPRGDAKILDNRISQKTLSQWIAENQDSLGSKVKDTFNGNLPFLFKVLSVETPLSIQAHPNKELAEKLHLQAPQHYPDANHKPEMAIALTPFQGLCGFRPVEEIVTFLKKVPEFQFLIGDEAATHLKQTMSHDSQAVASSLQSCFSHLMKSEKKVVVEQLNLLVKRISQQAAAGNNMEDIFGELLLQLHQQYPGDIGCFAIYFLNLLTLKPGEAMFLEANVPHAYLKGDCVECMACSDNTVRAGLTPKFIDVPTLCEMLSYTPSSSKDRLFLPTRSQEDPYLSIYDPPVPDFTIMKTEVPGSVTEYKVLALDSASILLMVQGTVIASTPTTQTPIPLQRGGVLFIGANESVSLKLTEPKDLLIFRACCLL

[10] = target: T5, Trace amine-associated receptor 1 (Homo sapiens, UniProt Q96RJ0); assay: Fluorescence-based cell-based high throughput dose response assay to identify agonists of the human trace amine associated receptor 1 (TAAR1).; assay type: functional
T5 sequence (Q96RJ0 whole entry): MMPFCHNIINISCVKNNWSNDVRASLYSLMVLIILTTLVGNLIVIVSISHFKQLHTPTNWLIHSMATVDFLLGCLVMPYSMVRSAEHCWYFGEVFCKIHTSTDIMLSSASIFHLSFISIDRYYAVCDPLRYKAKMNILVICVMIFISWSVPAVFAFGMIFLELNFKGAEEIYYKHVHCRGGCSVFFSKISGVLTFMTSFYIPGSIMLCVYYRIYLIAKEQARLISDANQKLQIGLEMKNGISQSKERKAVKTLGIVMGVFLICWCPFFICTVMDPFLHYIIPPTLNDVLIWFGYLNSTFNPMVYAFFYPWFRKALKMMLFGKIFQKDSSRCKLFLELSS

[11] = cells; assay type: functional, cell-based
[12] = cells; assay type: functional, cell-based; remark: listed apart in the source
[13] = target: T5, Trace amine-associated receptor 1; assay: Counterscreen for agonists of the human trace amine associated receptor 1 (hTAAR1): Fluorescence-based cell-based high throughput dose response assay to identify hTAAR1 agonist that also desensitize TAAR1 receptor response.; assay type: functional
[14] = growth inhibition of yeast DHODH-expressing 3D7 parasites – SYBR Green, dry powder samples, dose response (AID 1159570); assay type: functional, cell-based;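 also: parasite growth measured after 72 hours of compound exposure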
[15] = Dd2 malaria parasite growth inhibition potency – SYBR Green, dry powder samples, dose response (AID 1159566); assay type: functional, cell-based;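 also: potency for growth inhibition with lower SYBR green DNA signal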
[16] = growth inhibition of PfATP4-mutant resistant parasites – NITD609-resistant line, SYBR Green, dry powder, dose response (AID 1159571); assay type: functional, cell-based;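 also: parasites synchronized at ring stage by sorbitol before testing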
[17] = P. falciparum Dd2 growth inhibitors, dose response, SYBR Green, cherry-picked samples (AID 1159567); assay type: functional, cell-based
[18] = target: T6, Microphthalmia-associated transcription factor (Homo sapiens, UniProt O75030); assay: reducers of TRPM1 reporter luminescence, concentration series – cell-based, SK-MEL-5, cherry-picked, set 3, MITF inhibitor project, dose response (AID 493073); assay type: functional;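 also: SK-MEL-5 melanoma cells with luciferase driven by the MITF target TRPM1 promoter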
T6 sequence (O75030 whole entry): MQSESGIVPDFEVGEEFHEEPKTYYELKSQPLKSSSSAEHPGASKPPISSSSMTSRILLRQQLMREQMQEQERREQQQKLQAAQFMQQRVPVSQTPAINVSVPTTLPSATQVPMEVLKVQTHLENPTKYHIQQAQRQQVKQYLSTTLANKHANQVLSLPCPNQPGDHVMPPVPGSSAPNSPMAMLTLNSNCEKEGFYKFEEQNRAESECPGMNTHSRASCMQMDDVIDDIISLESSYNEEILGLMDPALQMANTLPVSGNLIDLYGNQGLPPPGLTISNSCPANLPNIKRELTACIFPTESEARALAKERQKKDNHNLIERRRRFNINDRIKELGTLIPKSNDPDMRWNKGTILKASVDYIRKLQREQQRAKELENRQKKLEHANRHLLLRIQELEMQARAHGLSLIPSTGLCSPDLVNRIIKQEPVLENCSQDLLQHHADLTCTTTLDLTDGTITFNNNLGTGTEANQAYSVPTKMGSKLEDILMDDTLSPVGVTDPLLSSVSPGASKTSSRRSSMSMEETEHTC

Sequence of Glyceraldehyde-3-phosphate dehydrogenase (P04406 whole entry): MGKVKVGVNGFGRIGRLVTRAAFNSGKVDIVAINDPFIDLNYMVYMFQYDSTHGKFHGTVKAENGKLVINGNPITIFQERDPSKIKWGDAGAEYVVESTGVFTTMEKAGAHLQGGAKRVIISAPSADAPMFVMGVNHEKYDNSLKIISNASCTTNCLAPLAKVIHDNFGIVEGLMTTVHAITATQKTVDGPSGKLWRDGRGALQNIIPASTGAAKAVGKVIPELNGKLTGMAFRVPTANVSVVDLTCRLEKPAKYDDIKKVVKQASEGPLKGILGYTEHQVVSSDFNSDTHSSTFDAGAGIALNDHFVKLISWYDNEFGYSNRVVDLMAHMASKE
Sequence of Mitogen-activated protein kinase 10 (P53779 whole entry): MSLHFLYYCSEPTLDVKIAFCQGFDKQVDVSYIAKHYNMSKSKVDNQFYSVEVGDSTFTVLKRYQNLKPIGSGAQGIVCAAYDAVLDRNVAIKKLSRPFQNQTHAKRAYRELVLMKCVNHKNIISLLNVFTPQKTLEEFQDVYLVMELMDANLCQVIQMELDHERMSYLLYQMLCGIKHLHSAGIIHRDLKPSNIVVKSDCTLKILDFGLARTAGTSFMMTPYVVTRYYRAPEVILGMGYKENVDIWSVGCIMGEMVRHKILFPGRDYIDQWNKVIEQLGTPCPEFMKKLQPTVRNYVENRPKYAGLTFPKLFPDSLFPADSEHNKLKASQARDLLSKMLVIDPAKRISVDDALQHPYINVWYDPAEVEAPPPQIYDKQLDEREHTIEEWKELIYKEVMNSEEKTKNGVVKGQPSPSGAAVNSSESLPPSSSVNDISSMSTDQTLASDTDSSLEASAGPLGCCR

In the case of NC(=O)c1c(NC(=O)Cc2cccs2)sc2c1CCC2, the IC50 [1] is reported as 28.3 µM (not active) and the IC50 [2] is reported as > 100 µM (active).
With CN1CCC(N[C@@H](Cc2ccccc2)C(=O)NCC(c2ccccc2)c2ccccc2)(C(=O)NC2CCCCC2)CC1 the IC50 [3] was > 96.6 µM (inactive).
With O=C1C(Cl)=C(Cl)C(=O)N1c1ccc(Cl)nc1 the IC50 [4] was 33.8 µM (active), the IC50 [5] was > 100 µM (not active) and the IC50 [6] was > 100 µM (not active).
With Cc1ccc(NNC(=O)C(O)(c2cccc(C(F)(F)F)c2)c2cccc(C(F)(F)F)c2)cc1 the CC50 [7] was 29.8 µM (active) and the AC50 [8] was 1.14 µM (active).
With CC1CCCN(C(=S)SCC(=O)c2cc(Br)cc(Br)c2O)C1 (configuration not stated) the IC50 [9] was > 50 µM (not active), the EC50 [10] was 0.732 µM (active) and the EC50 [11] was > 29.9 µM (inactive). For the same compound, the IC50 [12] was > 29.9 µM (inactive) and the IC50 [13] was 4.68 µM (active).
In the case of O=C(c1ccncc1)N1CC(=O)N2[C@H](C1)[C@@H](c1ccc(-c3cccnc3)cc1)[C@@H]2CO, the AC50 [14] is reported as 0.188 µM (active), the AC50 [15] is reported as 0.112 µM (active) and the AC50 [16] is reported as 0.161 µM (active). For the same compound, the AC50 [17] was < 0.3 µM (active).
With CC1CCN(C2CC(=O)N(c3ccc(Cl)c(Cl)c3)C2=O)CC1 (configuration not stated) the IC50 [4] was > 100 µM (not active), the IC50 [5] was > 100 µM (not active) and the IC50 [6] was > 100 µM (not active).
In the case of COc1ccc2nc(C)cc(NCc3cccc(C(F)(F)F)c3)c2c1, the IC50 [3] is reported as > 96.6 µM (inactive) and the AC50 [18] is reported as 18.2 µM (active).
